The target in one assay is EGFR (d746-750) (Homo sapiens (Human), UniProt P00533, DEL746-750). Nature of the assay: Biochemical EGFR inhibition assay, EGFR (d746-750). Particulars: Caliper mobility shift; 1.0 mM ATP or ATP Km; read-out: Enz EGFR_Exon19-del746-750 IC50. The procedure:
(§1) Reactions proceeded until between 10% to 20% total peptides were phosphorylated at room temperature (25° C.) and were terminated with 35 mM 2,2′,2″,2″-(ethane-1,2-diyldinitrilo)tetraacetic acid (EDTA). Product was detected using the Caliper mobility shift detection method where the phosphorylated peptide (product) and substrate were electrophoretically separated and measured. Percent activity was plotted against log concentration of compound and points to generate an apparent IC50.

The target of a further assay is EGFR L858R (Homo sapiens (Human), UniProt P00533, L858R). The assay can be described thus: Biochemical EGFR inhibition assay, EGFR L858R. Particulars: Caliper mobility shift; 1.0 mM ATP or ATP Km; read-out: Enz EGFR_L858R IC50. The procedure:
as §1

In assay [1] the target is pEGFR (Tyr1068) in PC-9 cells (Ex19Del) (Homo sapiens (Human), UniProt P00533, DEL746-750). The assay can be described thus: PC-9 pEGFR AlphaLISA assay. The class given is cell-based. Particulars: 4 hours incubation, p-EGFR (Tyr1068) AlphaLISA, read-out: Ext pEGFR_PC-9 Ex19Del IC50. How it is done:
PC-9/A431 pEGFR AlphaLISA Assays
Inhibitory effects of compounds were evaluated in cellular assays that measure level of intracellular phosphorylation of EGFR in PC-9 (ECACC, #90071810, Milipore/Sigma) and A431 cell lines (ATCC, CRL-1555) using AlphaLISA sureFire ultra p-EGFR (Tyr1068) assay kit (PerkinElmer, ALSU-PEGFR-A50K). PC-9 cells were seeded at 3.125×10^5 cells/ml in 40 μL phenol-free DMEM supplemented with 10% FBS per well of a 384 well plate (Corning, 3764), while A431 were seeded at 3.125×10^5 cells/ml in 40 μL in phenol-free DMEM with 0.5% FBS. Cells were allowed to adhere overnight at 37° C./5% CO2. On the next day, compounds were transferred at 4-fold, 10-point serial dilution from compound source plate to cell plates using liquid handler Echo550 and were incubated at 37° C./5% CO2 for 4 hours. A431 cells were stimulated prior harvesting for 10 min with EGF at final concentration of 30 ng/ml in the incubator. Medium was removed from the plates and cells were lysed with 10 μL of 1× AlphaLISA lysis buffer (supplemented with 1× protease/phosphatase inhibitor cocktail) followed by shaking at 600 rpm for 30 minutes at room temperature. Lysates were transferred to Optiplate (Apricot designs) and 5 μl of 1× acceptor bead mix (prepared just before use) was added to each well followed by incubation at room temperature for 1.5-2 h in dark. Then 5 μL of freshly-made donor bead mix is added to each well under subdued lighting or green filters, was mixed well on the shaker and the plate was sealed and left for an overnight incubation at room temperature in dark. On the next day, the plate was read the Envision using standard AlphaLisa settings. Percent of pEGFR inhibition was plotted against log concentration of compounds to generate IC50 values.

Where a name gives a salt, the structure may show the parent alone.

Data on 20 molecules can be found in US20250236608A1, “EGFR INHIBITORS” (Blueprint Medicines Corporation, priority 2022, published 2025).

Consider `COc1cc2ncnc(-c3cn(C)nc3-c3ccccc3)c2cc1NC(=O)c1ccc(C(F)F)nc1` [Example 352, 6-(difluoromethyl)-N-(7-methoxy-4-(1-methyl-3-phenyl-1H-pyrazol-4-yl)quinazolin-6-yl)nicotinamide], for which the 50% inhibitory concentration (IC50) on EGFR (d746-750) stood at 1.7 nM; at EGFR L858R it was 3.6 nM; in assay [1] it was 4.9 nM.

Regarding `CCc1nc2c(-c3cn(C)nc3-c3ccccc3)ncnc2cc1OC` [Example 136, 6-ethyl-7-methoxy-4-(1-methyl-3-phenyl-1H-pyrazol-4-yl)pyrido[3,2-d]pyrimidine], the concentration for half-maximal inhibition (IC50) on EGFR (d746-750) was determined as 0.4 nM; at EGFR L858R, 0.8 nM; in assay [1], 1.3 nM.

Turning to `COc1cc2ncnc(-c3cn(C)nc3-c3ccccc3)c2cc1OC(=O)N1CCNCC1(C)C` [Example 86, 7-methoxy-4-(1-methyl-3-phenyl-1H-pyrazol-4-yl)quinazolin-6-yl 2,2-dimethylpiperazine-1-carboxylate], the IC50 was found to be 2.5 nM on EGFR (d746-750), 5 nM on EGFR L858R and 5.8 nM in assay [1].

Turning to `Cn1cc(-c2ncnc3cc(C(F)(F)F)c(NC(=O)C45COCC4C5)nc23)c(-c2ccccc2)n1` (stereo not drawn) [Example 483, N-(4-(1-methyl-3-phenyl-1H-pyrazol-4-yl)-7-(trifluoromethyl)pyrido[3,2-d]pyrimidin-6-yl)-3-oxabicyclo[3.1.0]hexane-1-carboxamide], the IC50 came to 300 nM at EGFR (d746-750), 748 nM on EGFR L858R and 1710 nM in assay [1].

For `COc1cc2ncnc(-c3cn(C)nc3-c3ccccc3)c2cc1-c1cc2c[nH]nc2cc1C` [Example 147, 7-methoxy-6-(6-methyl-2H-indazol-5-yl)-4-(1-methyl-3-phenyl-1H-pyrazol-4-yl)quinazoline], the half-maximal inhibitory concentration (IC50) at EGFR L858R stood at 13.7 nM.

`COc1cc2ncnc(-c3cn(C)nc3-c3c(F)cccc3F)c2nc1NC(=O)[C@@]12C[C@@H]1CN(C)C2` (single isomer, unassigned) [Example 412, (1S,5S)—N-(4-(3-(2,6-difluorophenyl)-1-methyl-1H-pyrazol-4-yl)-7-methoxypyrido[3,2-d]pyrimidin-6-yl)-3-methyl-3-azabicyclo[3.1.0]hexane-1-carboxamide or (1R,5R)—N-(4-(3-(2,6-difluorophenyl)-1-methyl-1H-pyrazol-4-yl)-7-methoxypyrido[3,2-d]pyrimidin-6-yl)-3-methyl-3-azabicyclo[3.1.0]hexane-1-carboxamide]: the half-maximal inhibitory concentration (IC50) at EGFR L858R is 26 nM; in assay [1] it was 6.7 nM.

`COc1cc2ncnc(-c3cn(C)nc3-c3ccccc3)c2cc1-c1ccc2n[nH]cc2c1C` [Example 145, 7-methoxy-6-(4-methyl-2H-indazol-5-yl)-4-(1-methyl-3-phenyl-1H-pyrazol-4-yl)quinazoline]: the IC50 in assay [1] came out at 5.9 nM.

Consider `COc1cc2ncnc(-c3cn(C)nc3-c3c(F)cccc3F)c2nc1NC(=O)[C@]12C[C@H]1CN(C)C2` (single isomer, unassigned) [Example 413, (1R,5R)—N-(4-(3-(2,6-difluorophenyl)-1-methyl-1H-pyrazol-4-yl)-7-methoxypyrido[3,2-d]pyrimidin-6-yl)-3-methyl-3-azabicyclo[3.1.0]hexane-1-carboxamide or (1S,5S)—N-(4-(3-(2,6-difluorophenyl)-1-methyl-1H-pyrazol-4-yl)-7-methoxypyrido[3,2-d]pyrimidin-6-yl)-3-methyl-3-azabicyclo[3.1.0]hexane-1-carboxamide], for which the IC50 at EGFR L858R was 10 nM; in assay [1], 23.2 nM.

In the case of `COc1cc2ncnc(-c3cn(C)nc3-c3ccccc3)c2cc1-c1ccc2c(=O)[nH]ccc2c1` [Example 144, 6-(7-methoxy-4-(1-methyl-3-phenyl-1H-pyrazol-4-yl)quinazolin-6-yl)isoquinolin-1(2H)-one], the half-inhibitory concentration (IC50) in assay [1] came out at 8.3 nM.

With `CN1CC[C@@H](Oc2cc3c(-c4cn(C)nc4-c4ccccc4)ncnc3cc2OC2CC2)[C@H](F)C1` [Example 476, 7-cyclopropoxy-6-(((3R,4R)-3-fluoro-1-methylpiperidin-4-yl)oxy)-4-(1-methyl-3-phenyl-1H-pyrazol-4-yl)quinazoline], the results for the half-maximal inhibitory concentration (IC50) at EGFR (d746-750) and on EGFR L858R were 1.3 nM and 5.4 nM, respectively.

Take `COc1cc2ncnc(-c3cn(C)nc3-c3ccccc3)c2cc1NC(=O)C12C3C4C1C1C2C3C41NC(=O)OC(C)(C)C` (stereo not drawn) [Example 343, tert-butyl (4-((7-methoxy-4-(1-methyl-3-phenyl-1H-pyrazol-4-yl)quinazolin-6-yl)carbamoyl)cuban-1-yl)carbamate]: the IC50 in assay [1] was found to be 4.5 nM.

As to “7-ethoxy-6-(2-methyl-2H-indazol-4-yl)-4-(1-methyl-3-phenyl-1H-pyrazol-4-yl)pyrido[3,2-d]pyrimidine [Example 156]”, the concentration for half-maximal inhibition (IC50) is 3.2 nM on EGFR L858R and 2.4 nM in assay [1].

For `COc1cc2ncnc(-c3cn(C)nc3-c3ccccc3)c2cc1-c1cc2c[nH]nc2cc1C` [Example 146, 7-methoxy-6-(6-methyl-2H-indazol-5-yl)-4-(1-methyl-3-phenyl-1H-pyrazol-4-yl)quinazoline], the half-inhibitory concentration (IC50) at EGFR L858R turned out to be 8.2 nM.

With `COc1cc2ncnc(-c3cn(C)nc3-c3ccccc3)c2cc1NC(=O)C1CCN1C` (stereo not drawn) [Example 251, N-(7-methoxy-4-(1-methyl-3-phenyl-1H-pyrazol-4-yl)quinazolin-6-yl)-1-methylazetidine-2-carboxamide], the half-maximal inhibitory concentration (IC50) in assay [1] was found to be 3.5 nM.

With `CCC(=O)Nc1cc2c(-c3cn(C)nc3-c3ccccc3)ncnc2cc1-c1ccncn1` [Example 448, N-(4-(1-methyl-3-phenyl-1H-pyrazol-4-yl)-7-(pyrimidin-4-yl)quinazolin-6-yl)propionamide], the IC50 in assay [1] was determined as 6.5 nM.

On to `Cn1cc(-c2ccc3c(-c4c[nH]nc4-c4cccc(Cl)c4)ncnc3c2)cn1` [Example 440, 4-(3-(3-chlorophenyl)-1H-pyrazol-4-yl)-7-(1-methyl-1H-pyrazol-4-yl)quinazoline], for which the IC50 on EGFR L858R is 0.9 nM; in assay [1], 1.1 nM.

Regarding `COc1cc2ncnc(-c3cn(C)nc3-c3ccccc3)c2cc1NC(=O)[C@@]12C[C@@H]1CN(C)C2` [Example 336, (1S,5S)—N-(7-methoxy-4-(1-methyl-3-phenyl-1H-pyrazol-4-yl)quinazolin-6-yl)-3-methyl-3-azabicyclo[3.1.0]hexane-1-carboxamide], the IC50 in assay [1] was found to be 4 nM.

For the molecule `COc1cc2ncnc(-c3cn(C)nc3-c3ccccc3)c2cc1NC(=O)[C@@H]1CCN1C` (single isomer, unassigned) [Example 252, (S)—N-(7-methoxy-4-(1-methyl-3-phenyl-1H-pyrazol-4-yl)quinazolin-6-yl)-1-methylazetidine-2-carboxamide or (R)—N-(7-methoxy-4-(1-methyl-3-phenyl-1H-pyrazol-4-yl)quinazolin-6-yl)-1-methylazetidine-2-carboxamide], in assay [1], the half-inhibitory concentration (IC50) was 3.2 nM.

Consider `COc1cc2ncnc(-c3cn(C)nc3-c3ccccc3)c2cc1-c1ccnc(N2CCNCC2)c1` [Example 139, 7-methoxy-4-(1-methyl-3-phenyl-1H-pyrazol-4-yl)-6-(2-(piperazin-1-yl)pyridin-4-yl)quinazoline formate], for which, in assay [1], the concentration for half-maximal inhibition (IC50) was 5.1 nM.

Take `COc1cc2ncnc(-c3cn(C)nc3-c3ccccc3)c2cc1NC(=O)[C@]12C[C@H]1CN(C)C2` [Example 337, (1R,5R)—N-(7-methoxy-4-(1-methyl-3-phenyl-1H-pyrazol-4-yl)quinazolin-6-yl)-3-methyl-3-azabicyclo[3.1.0]hexane-1-carboxamide]: the IC50 in assay [1] came to 5.9 nM.
